Laboratory results reported in patent US20100256402A1, “NOVEL SOLVATE” (Sandoz AG, priority 2007, published 2010).
Converted amounts (≈) assume the structure as drawn.

Columns and labels:
Type in all cases: physicochemical
[1] = Stability after storing different forms of Tigecycline at 80° C. for 7 days; conditions: for 4-Epi-Tigecycline 7 days at 80° C. / Total impurities 7 days at 80° C.: after storing 7 days at 80° C.; for 4-Epi-Tigecycline ambient conditions / Total impurities ambient conditions: ambient conditions (before storage)
[2] = Water content and hygroscopicity, open storage for 24 hours at 80% relative humidity; conditions: for water content 1 day at 80% rH: open storage 1 day at 80% rH; for water uptake 1 day at 80% rH: open storage for 24 hours at 80% relative humidity
Source text: Furthermore suitable crystalline forms of Tigecycline should be low hygroscopic, as water uptake may cause the formation of undesired byproducts like e.g. 4-Epi-Tigecycline. […] Therefore crystalline form X is less hygroscopic than forms I, II, Ill and V of WO 2006/128150 and also less hygroscopic than form I of WO 2007/127292.

[3] = Water solubility testing (saturated solution in distilled water, UV-vis 347 nm); conditions: for Concentration (water solubility): 30 min
Experimental: A UV-vis Lambda 35 spectrophotometer (Perkin-Elmer) was used (A=347 nm, 1.0 cm quartz cells). Perkin Elmer® UV WinLab-5.1 software was used.
A saturated solution of Tigecycline in distilled water was prepared and the suspension was stirred at room temperature for 30 minutes with a stirring speed of 1000 U/min. The suspension was filtrated through a 0.45 μm filter. Finally the resulting solution was diluted 10000-fold and measured against water at a wavelength of 347 nm.

| SMILES | 4-Epi-Tigecycline 7 days at 80° C. [1] [%] | Total impurities 7 days at 80° C. [1] [%] | 4-Epi-Tigecycline ambient conditions [1] [%] | Total impurities ambient conditions [1] [%] | water content [%] ambient conditions [2] [%] | Concentration (water solubility) [3] [mg/mL] | water content 1 day at 80% rH [2] [%] | water uptake 1 day at 80% rH [2] [%] | other results |
| --- | --- | --- | --- | --- | --- | --- | --- | --- | --- |
| CN(C)c1cc(NC(=O)CNC(C)(C)C)c(O)c2c1C[C@H]1C[C@H]3[C@H](N(C)C)C(O)=C(C(N)=O)C(=O)[C@@]3(O)C(O)=C1C2=O [WO 2006/128150 V, Tigecycline] | 0.18 | 0.37 | < 0.05 | 0.22 | 0.19 |  |  |  |  |
| CN(C)c1cc(NC(=O)CNC(C)(C)C)c(O)c2c1C[C@H]1C[C@H]3[C@H](N(C)C)C(O)=C(C(N)=O)C(=O)[C@@]3(O)C(O)=C1C2=O [X, Tigecycline] | 0.79 | 3.48 | 0.2 | 0.58 | 0.29 | 162 | 0.86 | 0.57 | water uptake 1 day at 80% rH ([2]; listed as form X): 0.57% |
| CN(C)c1cc(NC(=O)CNC(C)(C)C)c(O)c2c1C[C@H]1C[C@H]3[C@H](N(C)C)C(O)=C(C(N)=O)C(=O)[C@@]3(O)C(O)=C1C2=O [WO 2006/128150 III, Tigecycline] |  |  | 0.16 | 0.16 | 0.69 | 174 |  |  |  |
| CN(C)c1cc(NC(=O)CNC(C)(C)C)c(O)c2c1C[C@H]1C[C@H]3[C@H](N(C)C)C(O)=C(C(N)=O)C(=O)[C@@]3(O)C(O)=C1C2=O [WO 2007/127292 I, Tigecycline] |  |  |  |  | 0.13 | 54 | 6.39 | 6.26 | 4-Epi-Tigecycline 7 days at 80° C. ([1]; listed as WO 2007/127792 I): 1.26%; Total impurities 7 days at 80° C. ([1]; listed as WO 2007/127792 I): 2.22%; 4-Epi-Tigecycline ambient conditions ([1]; listed as WO 2007/127792 I): 0.34%; Total impurities ambient conditions ([1]; listed as WO 2007/127792 I): 0.59%; water uptake 1 day at 80% rH ([2]; listed as form I of WO 2007/127292): 6.26% |
| CN(C)c1cc(NC(=O)CNC(C)(C)C)c(O)c2c1C[C@H]1C[C@H]3[C@H](N(C)C)C(O)=C(C(N)=O)C(=O)[C@@]3(O)C(O)=C1C2=O [WO 2007/127292 II, Tigecycline] |  |  |  |  | 0.18 |  | 0.25 | 0.07 | 4-Epi-Tigecycline 7 days at 80° C. ([1]; listed as WO 2007/127792 II): 0.38%; Total impurities 7 days at 80° C. ([1]; listed as WO 2007/127792 II): 0.91%; 4-Epi-Tigecycline ambient conditions ([1]; listed as WO 2007/127792 II): 0.17%; Total impurities ambient conditions ([1]; listed as WO 2007/127792 II): 0.24% |
| CN(C)c1cc(NC(=O)CNC(C)(C)C)c(O)c2c1C[C@H]1C[C@H]3[C@H](N(C)C)C(O)=C(C(N)=O)C(=O)[C@@]3(O)C(O)=C1C2=O [WO 2006/128150 IV, Tigecycline] | 0.38 | 0.87 | 0.23 | 0.4 | 2.90 |  |  | 0.43 | solubility at 30 min ([3]; distilled water, water, thermodynamic from solid, distilled water, room temperature, stirred 30 minutes, 0.45 μm filter, read-out: Concentration (water solubility)): 322 mg/mL (≈ 550 mM) |
| CN(C)c1cc(NC(=O)CNC(C)(C)C)c(O)c2c1C[C@H]1C[C@H]3[C@H](N(C)C)C(O)=C(C(N)=O)C(=O)[C@@]3(O)C(O)=C1C2=O [WO 2006/128150 I, Tigecycline] |  |  | 0.36 | 0.75 |  | 201 |  | 3.00 |  |
| CN(C)c1cc(NC(=O)CNC(C)(C)C)c(O)c2c1C[C@H]1C[C@H]3[C@H](N(C)C)C(O)=C(C(N)=O)C(=O)[C@@]3(O)C(O)=C1C2=O [WO 2006/128150 II, Tigecycline] |  |  |  | 1.6 |  | 170 |  |  |  |
